Tested on: Microdochium nivale
Test: Microdochium nivale test (lawn)/protective
Format: in vivo
Conditions: lawn (100% Agrostis stolonifera) in dishes; preventive application at 2000, 1000, 500 and 100 g/ha, 24 hours before inoculation with infected wheat grains; scoring after 5, 7, 14 and 21 days
Experimental: Microdochium nivale Test (Lawn)/Protective
Lawn seed (100% Agrostis stolonifera) was sown in dishes of the dimensions 38 cm×15 cm×9 cm. 7 days after sowing, the lawn was cut prior to preventive guanidinium hydroxide application at application rates of 2000, 1000, 500 and 100 g/ha. The water application rates were […] (converted). 24 hours after the preventive application of the active compound, the lawn was inoculated by placing of wheat grains infected with Microdochium nivale. In each case 3 wheat grains were placed into a single dish. Scoring of the subsequent fungal growth in the lawn dishes was carried out after 5, 7, 14 and 21 days. In the dishes which had been treated with guanidinium hydroxide, an inhibition of the growth of Microdochium nivale of up to 30% (Abbott) was observed.

SMILES: N=C(N)N.O [guanidinium hydroxide]
- inhibition of the growth of Microdochium nivale: up to 30 % (Abbott)

Source: patent publication US20120015981A1, “Active compound combinations” (Bayer CorpScience AG, priority 2009, published 2012)
